Data published in the CheMixHub viscosity set.
± gives the uncertainty stated by the source.

Assay: xn = mol fraction of the nth substance listed

CC(=O)OC(C)C + C1CCCCC1
viscosity [mPa·s], 101 kPa
Conditions | 298.15 K | 308.15 K
x1 = 0.0846 | 0.8036 ± 0.0051 | 0.6718 ± 0.0044
x1 = 0.1126 | 0.7518 ± 0.0049 | 0.6494 ± 0.0043
x1 = 0.1665 | 0.705 ± 0.0046 | 0.612 ± 0.0041
x1 = 0.2671 | 0.636 ± 0.0042 | 0.5559 ± 0.0038
x1 = 0.3555 | 0.594 ± 0.004 | 0.5212 ± 0.0036
x1 = 0.4881 | 0.5485 ± 0.0038 | 0.4824 ± 0.0034
x1 = 0.5911 | 0.5241 ± 0.0036 | 0.462 ± 0.0033
x1 = 0.6773 | 0.5099 ± 0.0035 | 0.4512 ± 0.0032
x1 = 0.7902 | 0.4951 ± 0.0035 | 0.441 ± 0.0032
x1 = 0.8873 | 0.4932 ± 0.0035 | 0.4366 ± 0.0031
x1 = 0.9593 | 0.4903 ± 0.0034 | 0.4349 ± 0.0031
x2 = 0.07507 | – | 0.4324 ± 0.0096
x2 = 0.2053 | – | 0.4373 ± 0.0096
x2 = 0.298 | – | 0.4444 ± 0.0097
x2 = 0.3967 | – | 0.4564 ± 0.0099
x2 = 0.505 | – | 0.4759 ± 0.01
x2 = 0.6014 | – | 0.4989 ± 0.01
x2 = 0.714 | – | 0.5351 ± 0.011
x2 = 0.7973 | – | 0.5787 ± 0.012
x2 = 0.8978 | – | 0.6451 ± 0.013

CCCC(=O)O + C1CCCCC1
303.15 K, 101 kPa
Conditions | viscosity [mPa·s]
x2 = 0.101 | 1.196 ± 0.014
x2 = 0.1921 | 1.069 ± 0.013
x2 = 0.2875 | 0.9914 ± 0.012
x2 = 0.3938 | 0.9189 ± 0.011
x2 = 0.4993 | 0.867 ± 0.01
x2 = 0.591 | 0.8407 ± 0.0099
x2 = 0.6993 | 0.7948 ± 0.0094
x2 = 0.8074 | 0.7912 ± 0.0094
x2 = 0.9011 | 0.7924 ± 0.0094

CCCC(C)O (configuration not stated) + C1CCCCC1
303.15 K, 101.33 kPa
Conditions | viscosity [mPa·s]
x1 = 0.1049 | 0.874 ± 0.011
x1 = 0.2028 | 0.94 ± 0.012
x1 = 0.3035 | 1.03 ± 0.013
x1 = 0.4031 | 1.151 ± 0.014
x1 = 0.5017 | 1.306 ± 0.016
x1 = 0.6043 | 1.534 ± 0.018
x1 = 0.6903 | 1.772 ± 0.021
x1 = 0.801 | 2.116 ± 0.025
x1 = 0.9115 | 2.521 ± 0.029

CCCCBr + C1CCCCC1
308.15 K, 101 kPa
Conditions | viscosity [mPa·s]
x2 = 0.1017 | 0.5246 ± 0.0044
x2 = 0.2037 | 0.5305 ± 0.0043
x2 = 0.3038 | 0.5365 ± 0.0042
x2 = 0.4015 | 0.5458 ± 0.0042
x2 = 0.5006 | 0.5596 ± 0.0042
x2 = 0.5951 | 0.5789 ± 0.0043
x2 = 0.7004 | 0.6032 ± 0.0043
x2 = 0.8014 | 0.6338 ± 0.0044
x2 = 0.899 | 0.6799 ± 0.0046

CCCCNCCCC + C1CCCCC1
viscosity [mPa·s], 101 kPa
Conditions | 303.15 K | 313.15 K
x1 = 0.01094 | 0.8102 ± 0.0056 | 0.7072 ± 0.005
x1 = 0.02041 | 0.8023 ± 0.0055 | 0.6959 ± 0.005
x1 = 0.02983 | 0.7945 ± 0.0055 | 0.6867 ± 0.0049
x1 = 0.03917 | 0.7871 ± 0.0055 | 0.6761 ± 0.0049
x1 = 0.04929 | 0.7755 ± 0.0054 | 0.6665 ± 0.0048
x1 = 0.05831 | 0.7665 ± 0.0054 | 0.6583 ± 0.0048
x1 = 0.06895 | 0.7585 ± 0.0053 | 0.6494 ± 0.0048
x1 = 0.07966 | 0.7491 ± 0.0053 | 0.6406 ± 0.0047
x1 = 0.08806 | 0.742 ± 0.0053 | 0.6327 ± 0.0047
x2 = 0.1011 | 0.749 ± 0.015 | –
x2 = 0.2001 | 0.737 ± 0.015 | –
x2 = 0.3025 | 0.731 ± 0.015 | –
x2 = 0.4034 | 0.728 ± 0.015 | –
x2 = 0.4997 | 0.727 ± 0.015 | –
x2 = 0.605 | 0.729 ± 0.015 | –
x2 = 0.7025 | 0.727 ± 0.015 | –
x2 = 0.7989 | 0.743 ± 0.015 | –
x2 = 0.8971 | 0.759 ± 0.015 | –

COCCO + C1CCCCC1
viscosity [mPa·s], 101 kPa
Conditions | 298.15 K | 308.15 K
x1 = 0.054 | 0.905 ± 0.016 | 0.75 ± 0.013
x1 = 0.1506 | 0.923 ± 0.016 | 0.757 ± 0.013
x1 = 0.2513 | 0.95 ± 0.016 | 0.773 ± 0.014
x1 = 0.3532 | 0.989 ± 0.017 | 0.797 ± 0.014
x1 = 0.4508 | 1.037 ± 0.017 | 0.829 ± 0.015
x1 = 0.4955 | 1.062 ± 0.018 | 0.847 ± 0.015
x1 = 0.5513 | 1.098 ± 0.018 | 0.873 ± 0.015
x1 = 0.649 | 1.172 ± 0.019 | 0.926 ± 0.016
x1 = 0.7493 | 1.264 ± 0.021 | 0.994 ± 0.017
x1 = 0.8496 | 1.377 ± 0.022 | 1.079 ± 0.018
x1 = 0.9529 | 1.518 ± 0.024 | 1.185 ± 0.02

CCCC(=O)O + C1CCOC1
298.15 K, 101 kPa
Conditions | viscosity [mPa·s]
x2 = 0.1195 | 1.45 ± 0.012
x2 = 0.234 | 1.43 ± 0.012
x2 = 0.3437 | 1.34 ± 0.011
x2 = 0.4489 | 1.212 ± 0.01
x2 = 0.5499 | 1.068 ± 0.0091
x2 = 0.647 | 0.9205 ± 0.0078
x2 = 0.7403 | 0.7856 ± 0.0067
x2 = 0.8301 | 0.6588 ± 0.0057
x2 = 0.9166 | 0.545 ± 0.0048

CCOC(=O)C(=O)OCC + C1CCOC1
viscosity [mPa·s], 101 kPa
Conditions | x1 = 0.0955 | x1 = 0.2037 | x1 = 0.3007 | x1 = 0.4056 | x1 = 0.513 | x1 = 0.6056 | x1 = 0.7083 | x1 = 0.7994 | x1 = 0.9082
303.15 K | 0.506 ± 0.031 | 0.591 ± 0.036 | 0.683 ± 0.041 | 0.795 ± 0.048 | 0.916 ± 0.055 | 1.03 ± 0.062 | 1.173 ± 0.071 | 1.298 ± 0.078 | 1.472 ± 0.089
313.15 K | 0.453 ± 0.027 | 0.529 ± 0.032 | 0.607 ± 0.037 | 0.698 ± 0.042 | 0.801 ± 0.048 | 0.893 ± 0.054 | 1.006 ± 0.061 | 1.107 ± 0.067 | 1.237 ± 0.075
323.15 K | 0.414 ± 0.025 | 0.479 ± 0.029 | 0.544 ± 0.033 | 0.619 ± 0.037 | 0.701 ± 0.042 | 0.782 ± 0.047 | 0.872 ± 0.053 | 0.954 ± 0.058 | 1.057 ± 0.064

C1CC[C@H]2CCCC[C@H]2C1 + C1CC[C@H]2CCCC[C@@H]2C1
Conditions | viscosity [mPa·s]
293.15 K, 101 kPa, x1 = 0.103 | 2.193 ± 0.051
293.15 K, 101 kPa, x1 = 0.129 | 2.206 ± 0.052
293.15 K, 101 kPa, x1 = 0.206 | 2.289 ± 0.053
293.15 K, 101 kPa, x1 = 0.256 | 2.321 ± 0.054
293.15 K, 101 kPa, x1 = 0.383 | 2.391 ± 0.056
293.15 K, 101 kPa, x1 = 0.509 | 2.622 ± 0.061
293.15 K, 101 kPa, x1 = 0.608 | 2.748 ± 0.063
293.15 K, 101 kPa, x1 = 0.633 | 2.763 ± 0.064
293.15 K, 101 kPa, x1 = 0.756 | 2.943 ± 0.068
293.15 K, 101 kPa, x1 = 0.805 | 3.026 ± 0.069
293.15 K, 101 kPa, x1 = 0.903 | 3.178 ± 0.073
293.15 K, 101.3 kPa, x1 = 0.403 | 2.445 ± 0.29
298.15 K, 100 kPa, x1 = 0.39 | 2.22 ± 0.09
303.15 K, 101 kPa, x1 = 0.103 | 1.68 ± 0.04
303.15 K, 101 kPa, x1 = 0.129 | 1.704 ± 0.041
303.15 K, 101 kPa, x1 = 0.206 | 1.748 ± 0.042
303.15 K, 101 kPa, x1 = 0.256 | 1.792 ± 0.043
303.15 K, 101 kPa, x1 = 0.383 | 1.896 ± 0.045
303.15 K, 101 kPa, x1 = 0.509 | 1.977 ± 0.047
303.15 K, 101 kPa, x1 = 0.608 | 2.062 ± 0.048
303.15 K, 101 kPa, x1 = 0.633 | 2.094 ± 0.049
303.15 K, 101 kPa, x1 = 0.756 | 2.151 ± 0.05
303.15 K, 101 kPa, x1 = 0.805 | 2.244 ± 0.052
303.15 K, 101 kPa, x1 = 0.903 | 2.342 ± 0.055
303.15 K, 101.3 kPa, x1 = 0.403 | 1.998 ± 0.24
313.15 K, 101.3 kPa, x1 = 0.403 | 1.705 ± 0.2
323.15 K, 100 kPa, x1 = 0.39 | 1.44 ± 0.059
323.15 K, 101.3 kPa, x1 = 0.403 | 1.457 ± 0.17

CC(CC(C)(C)C)CC(C)(C)CC(C)(C)C (configuration not stated) + C1CC[C@H]2CCCC[C@H]2C1
viscosity [mPa·s], 100 kPa
Conditions | x2 = 0.125 | x2 = 0.25 | x2 = 0.375 | x2 = 0.5 | x2 = 0.625 | x2 = 0.75 | x2 = 0.875
293.15 K | 3.68 ± 0.095 | 3.64 ± 0.094 | 3.559 ± 0.092 | 3.505 ± 0.09 | 3.456 ± 0.088 | 3.402 ± 0.087 | 3.377 ± 0.086
303.15 K | 2.919 ± 0.076 | 2.871 ± 0.075 | 2.83 ± 0.074 | 2.797 ± 0.073 | 2.765 ± 0.072 | 2.736 ± 0.07 | 2.713 ± 0.07
313.15 K | 2.364 ± 0.061 | 2.334 ± 0.06 | 2.303 ± 0.059 | 2.279 ± 0.058 | 2.259 ± 0.058 | 2.254 ± 0.057 | 2.228 ± 0.056
323.15 K | 1.961 ± 0.05 | 1.934 ± 0.049 | 1.911 ± 0.048 | 1.897 ± 0.048 | 1.884 ± 0.047 | 1.876 ± 0.047 | 1.87 ± 0.047

CCCCNCCCC + C1COCCO1
Conditions | viscosity [mPa·s]
303.15 K, 101 kPa, x1 = 0.01068 | 1.065 ± 0.0078

CCCC(=O)O + C1COCO1
298.15 K, 101 kPa
Conditions | viscosity [mPa·s]
x2 = 0.2292 | 1.358 ± 0.011
x2 = 0.3376 | 1.288 ± 0.011
x2 = 0.5433 | 1.098 ± 0.0093
x2 = 0.6408 | 0.9928 ± 0.0084
x2 = 0.7351 | 0.8845 ± 0.0075
x2 = 0.8263 | 0.7758 ± 0.0066
x2 = 0.9146 | 0.6775 ± 0.0058
